Laboratory results reported in article PMC4676015, “Variant fatty acid-like molecules Conjugation, novel approaches for extending the stability of therapeutic peptides” (Scientific Reports, 2015).

Experiments:
GLP-1 receptor (GLP-1R) = biological target: T1, GLP-1 receptor (GLP-1R) (Rattus norvegicus, UniProt P32301); assay: GLP-1 receptor binding assay (cellular ELISA)
T1 construct: endogenous in cells; host or cells: rat INS-1 cells
T1 sequence (P32301 22-463): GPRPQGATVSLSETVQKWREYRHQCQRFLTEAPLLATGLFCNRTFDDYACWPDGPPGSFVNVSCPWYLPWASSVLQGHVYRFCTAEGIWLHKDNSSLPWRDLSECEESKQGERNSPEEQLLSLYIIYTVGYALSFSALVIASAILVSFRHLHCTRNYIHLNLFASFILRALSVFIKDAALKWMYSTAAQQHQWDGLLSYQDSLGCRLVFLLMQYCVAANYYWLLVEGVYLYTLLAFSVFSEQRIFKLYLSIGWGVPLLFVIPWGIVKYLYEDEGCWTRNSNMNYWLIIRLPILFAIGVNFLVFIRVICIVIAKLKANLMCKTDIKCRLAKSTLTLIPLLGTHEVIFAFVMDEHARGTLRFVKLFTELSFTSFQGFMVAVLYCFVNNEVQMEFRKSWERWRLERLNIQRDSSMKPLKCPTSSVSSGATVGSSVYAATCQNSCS
Method: Cells were rinsed with PBS and fixed with 4% paraformaldehyde (Thermo Scientific) for 10 min at room temperature and quenched for 5 min with 2% glycine in PBS, pH 7.5. […] After a 2 h incubation at 37 °C in a final volume of 100 μl, the excess peptides were washed, and the cells were blocked with 5% BSA (BD Biosciences). […] Colorimetric changes were analyzed by reading the absorbance at 450 nm in a SpectraMax M5 (Molecular Device) microplate reader. The peptide concentration was plotted against UV absorbance, and the Kd was calculated using Origin 7.0 software.

DPP IV enzyme = biological target: T2, DPP IV enzyme (Homo sapiens, UniProt P27487); assay: Stability against DPP IV proteolysis with or without HSA; type: in vitro ADME; details: for degradation in DPP IV proteolysis compared with wild-type GLP-1, within 24 h / detectability of full-length peptide at 24 h: DPP IV 0.1 mg/ml, peptide 1 mg/ml; for degradation in DPP IV proteolysis compared with wild-type GLP-1, within 24 h: 25 mM potassium phosphate, 25 mM KCl, 5 mM MgCl2, pH 7.0, 2% HSA; for detectability of full-length peptide at 24 h: pH 7.0, in the presence of human serum albumin (2%)
T2 construct: purchased Sigma-Aldrich
Method: DPP IV enzyme (0.1 mg/ml) was dissolved in 25 mM potassium phosphate buffer containing 25 mM potassium chloride and 5 mM magnesium chloride, pH 7.0.

[1] = Blood retention time measurement; details: 500 μg/kg s.c., Wistar rats, n = 5, GLP-1 (7–37) ELISA
[2] = DPP IV proteolysis solution, 37 °C, GLP-1 (7–37) ELISA, P < 0.01

T2 sequence (P27487 whole entry, species assumed): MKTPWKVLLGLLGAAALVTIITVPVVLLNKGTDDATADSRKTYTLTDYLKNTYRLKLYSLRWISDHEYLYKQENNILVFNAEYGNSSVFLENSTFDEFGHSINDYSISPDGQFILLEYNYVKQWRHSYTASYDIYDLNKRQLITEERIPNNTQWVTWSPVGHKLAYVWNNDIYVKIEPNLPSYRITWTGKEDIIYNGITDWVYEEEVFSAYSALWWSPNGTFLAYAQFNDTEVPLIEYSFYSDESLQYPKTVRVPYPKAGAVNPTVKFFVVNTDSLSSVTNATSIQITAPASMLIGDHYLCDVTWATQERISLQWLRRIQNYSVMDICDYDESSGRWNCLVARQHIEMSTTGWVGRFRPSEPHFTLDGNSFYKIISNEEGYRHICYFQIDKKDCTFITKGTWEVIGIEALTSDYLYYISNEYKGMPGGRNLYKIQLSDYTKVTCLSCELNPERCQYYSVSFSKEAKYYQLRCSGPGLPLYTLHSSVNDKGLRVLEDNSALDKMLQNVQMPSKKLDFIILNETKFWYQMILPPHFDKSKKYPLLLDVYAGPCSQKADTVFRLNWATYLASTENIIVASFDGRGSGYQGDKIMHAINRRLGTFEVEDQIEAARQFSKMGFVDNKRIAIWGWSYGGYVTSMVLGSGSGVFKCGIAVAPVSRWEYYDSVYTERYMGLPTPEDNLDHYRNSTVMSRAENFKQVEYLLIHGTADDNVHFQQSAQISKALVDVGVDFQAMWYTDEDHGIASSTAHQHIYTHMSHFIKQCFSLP

Row | Structure (SMILES) | Kd (GLP-1 receptor (GLP-1R)) | degradation in DPP IV proteolysis compared with wild-type GLP-1, within 24 h (DPP IV enzyme; 37 °C, GLP-1 (7–37) ELISA) | detectability of full-length peptide at 24 h (DPP IV enzyme; 37 °C, GLP-1 (7–37) ELISA) | AUCGLP-1(7–37) in proteolysis solution compared to native GLP-1 (DPP IV enzyme; [2]) | AUC0–24 h, amount of undigested GLP-1 fragments compared with wild-type GLP-1 (DPP IV enzyme; DPP IV proteolysis solution, 37 °C, 0-24 h, GLP-1 (7–37) ELISA, P < 0.01) | degradation rate against DPP IV compared with compounds 6 and 21, respectively (DPP IV enzyme; DPP IV proteolysis, same carbon chain length without free carboxyl group as comparator) | increase of circulating amount (AUC GLP-1 (7-37)) compared with native GLP-1 ([1]; 0.5-96 h) | blood retention / serum level behaviour [1]
1 | CCCCCCCCCCCCCCCCNC(=O)CC[C@H](NC(=O)[C@H](CC(C)C)NC(=O)[C@H](Cc1ccc(O)cc1)NC(=O)[C@H](CO)NC(=O)[C@H](CO)NC(=O)[C@@H](NC(=O)[C@H](CC(=O)O)NC(=O)[C@H](CO)NC(=O)[C@@H](NC(=O)[C@H](Cc1ccccc1)NC(=O)[C@@H](NC(=O)CNC(=O)[C@H](CCC(=O)O)NC(=O)[C@H](C)NC(=O)[C@@H](N)Cc1c[nH]cn1)[C@@H](C)O)[C@@H](C)O)C(C)C)C(=O)NCC(=O)N[C@@H](CCC(N)=O)C(=O)N[C@@H](C)C(=O)N[C@@H](C)C(=O)N[C@@H](CCCCN)C(=O)N[C@@H](CCC(=O)O)C(=O)N[C@@H](Cc1ccccc1)C(=O)N[C@H](C(=O)N[C@@H](C)C(=O)N[C@@H](Cc1c[nH]c2ccccc12)C(=O)N[C@@H](CC(C)C)C(=O)N[C@H](C(=O)N[C@@H](CCCCN)C(=O)NCC(=O)N[C@@H](CCCNC(=N)N)C(=O)NCC(=O)O)C(C)C)[C@@H](C)CC [compound 15] | – | slower degradation rates | still detectable at 24 h | – | – | – | – | –
2 | CC[C@H](C)[C@H](NC(=O)[C@H](Cc1ccccc1)NC(=O)[C@H](CCC(=O)O)NC(=O)[C@H](CCCCN)NC(=O)[C@H](C)NC(=O)[C@H](C)NC(=O)[C@H](CCC(N)=O)NC(=O)CNC(=O)[C@H](CCC(=O)O)NC(=O)[C@H](CC(C)C)NC(=O)[C@H](Cc1ccc(O)cc1)NC(=O)[C@H](CO)NC(=O)[C@H](CO)NC(=O)[C@@H](NC(=O)[C@H](CC(=O)O)NC(=O)[C@H](CO)NC(=O)[C@@H](NC(=O)[C@H](Cc1ccccc1)NC(=O)[C@@H](NC(=O)CNC(=O)[C@H](CCC(=O)O)NC(=O)[C@H](C)NC(=O)[C@@H](N)Cc1c[nH]cn1)[C@@H](C)O)[C@@H](C)O)C(C)C)C(=O)N[C@@H](C)C(=O)N[C@@H](Cc1c[nH]c2ccccc12)C(=O)N[C@@H](CC(C)C)C(=O)N[C@H](C(=O)N[C@@H](CC(=O)NCCCCCCCCCCCC(=O)O)C(=O)NCC(=O)N[C@@H](CCCNC(=N)N)C(=O)NCC(=O)O)C(C)C [compound 22] | 21.1 ± 2.34 nM | – | still detectable at 24 h | significantly increased | approximately 3.5 fold | significantly lower degradation rates | 2.6 fold | extended the stabilities in vivo
3 | CC[C@H](C)[C@H](NC(=O)[C@H](Cc1ccccc1)NC(=O)[C@H](CCC(=O)O)NC(=O)[C@H](CCCCN)NC(=O)[C@H](C)NC(=O)[C@H](C)NC(=O)[C@H](CCC(N)=O)NC(=O)CNC(=O)[C@H](CCC(=O)NCCCCCCCCCCCC(=O)O)NC(=O)[C@H](CC(C)C)NC(=O)[C@H](Cc1ccc(O)cc1)NC(=O)[C@H](CO)NC(=O)[C@H](CO)NC(=O)[C@@H](NC(=O)[C@H](CC(=O)O)NC(=O)[C@H](CO)NC(=O)[C@@H](NC(=O)[C@H](Cc1ccccc1)NC(=O)[C@@H](NC(=O)CNC(=O)[C@H](CCC(=O)O)NC(=O)[C@H](C)NC(=O)[C@@H](N)Cc1c[nH]cn1)[C@@H](C)O)[C@@H](C)O)C(C)C)C(=O)N[C@@H](C)C(=O)N[C@@H](Cc1c[nH]c2ccccc12)C(=O)N[C@@H](CC(C)C)C(=O)N[C@H](C(=O)N[C@@H](CCCCN)C(=O)NCC(=O)N[C@@H](CCCNC(=N)N)C(=O)NCC(=O)O)C(C)C [compound 23] | 24.3 ± 1.96 nM | – | still detectable at 24 h | significantly increased | – | – | – | –

More lines, now with the values ahead:

Row | Kd (GLP-1 receptor (GLP-1R)) | degradation in DPP IV proteolysis compared with wild-type GLP-1, within 24 h (DPP IV enzyme; 37 °C, GLP-1 (7–37) ELISA) | detectability of full-length peptide at 24 h (DPP IV enzyme; 37 °C, GLP-1 (7–37) ELISA) | AUCGLP-1(7–37) in proteolysis solution compared to native GLP-1 (DPP IV enzyme; [2]) | AUC0–24 h, amount of undigested GLP-1 fragments compared with wild-type GLP-1 (DPP IV enzyme; DPP IV proteolysis solution, 37 °C, 0-24 h, GLP-1 (7–37) ELISA, P < 0.01) | degradation rate against DPP IV compared with compounds 6 and 21, respectively (DPP IV enzyme; DPP IV proteolysis, same carbon chain length without free carboxyl group as comparator) | increase of circulating amount (AUC GLP-1 (7-37)) compared with native GLP-1 ([1]; 0.5-96 h) | blood retention / serum level behaviour [1] | Structure (SMILES)
4 | 13.7 ± 0.88 nM | slower degradation rates | still detectable at 24 h | – | – | – | – | – | CCCCCCCCCCCCCCCC(=O)NCCCC[C@H](NC(=O)[C@@H](NC(=O)[C@H](CC(C)C)NC(=O)[C@H](Cc1c[nH]c2ccccc12)NC(=O)[C@H](C)NC(=O)[C@@H](NC(=O)[C@H](Cc1ccccc1)NC(=O)[C@H](CCC(=O)O)NC(=O)[C@H](CCCCN)NC(=O)[C@H](C)NC(=O)[C@H](C)NC(=O)[C@H](CCC(N)=O)NC(=O)CNC(=O)[C@H](CCC(=O)O)NC(=O)[C@H](CC(C)C)NC(=O)[C@H](Cc1ccc(O)cc1)NC(=O)[C@H](CO)NC(=O)[C@H](CO)NC(=O)[C@@H](NC(=O)[C@H](CC(=O)O)NC(=O)[C@H](CO)NC(=O)[C@@H](NC(=O)[C@H](Cc1ccccc1)NC(=O)[C@@H](NC(=O)CNC(=O)[C@H](CCC(=O)O)NC(=O)[C@H](C)NC(=O)[C@@H](N)Cc1c[nH]cn1)[C@@H](C)O)[C@@H](C)O)C(C)C)[C@@H](C)CC)C(C)C)C(=O)NCC(=O)N[C@@H](CCCNC(=N)N)C(=O)NCC(=O)O [compound 6]
5 | 18.7 ± 2.13 nM | slower degradation rates | still detectable at 24 h | – | – | – | – | – | CCCCCCCCCCCCNC(=O)CC[C@H](NC(=O)[C@H](CCCCN)NC(=O)[C@H](C)NC(=O)[C@H](C)NC(=O)[C@H](CCC(N)=O)NC(=O)CNC(=O)[C@H](CCC(=O)O)NC(=O)[C@H](CC(C)C)NC(=O)[C@H](Cc1ccc(O)cc1)NC(=O)[C@H](CO)NC(=O)[C@H](CO)NC(=O)[C@@H](NC(=O)[C@H](CC(=O)O)NC(=O)[C@H](CO)NC(=O)[C@@H](NC(=O)[C@H](Cc1ccccc1)NC(=O)[C@@H](NC(=O)CNC(=O)[C@H](CCC(=O)O)NC(=O)[C@H](C)NC(=O)[C@@H](N)Cc1c[nH]cn1)[C@@H](C)O)[C@@H](C)O)C(C)C)C(=O)N[C@@H](Cc1ccccc1)C(=O)N[C@H](C(=O)N[C@@H](C)C(=O)N[C@@H](Cc1c[nH]c2ccccc12)C(=O)N[C@@H](CC(C)C)C(=O)N[C@H](C(=O)N[C@@H](CCCCN)C(=O)NCC(=O)N[C@@H](CCCNC(=N)N)C(=O)NCC(=O)O)C(C)C)[C@@H](C)CC [compound 17]
6 | 16.5 ± 2.17 nM | slower degradation rates | still detectable at 24 h | – | – | – | – | – | CCCCCCCCCCCCCCCCNC(=O)CC[C@H](NC(=O)[C@H](CCCCN)NC(=O)[C@H](C)NC(=O)[C@H](C)NC(=O)[C@H](CCC(N)=O)NC(=O)CNC(=O)[C@H](CCC(=O)O)NC(=O)[C@H](CC(C)C)NC(=O)[C@H](Cc1ccc(O)cc1)NC(=O)[C@H](CO)NC(=O)[C@H](CO)NC(=O)[C@@H](NC(=O)[C@H](CC(=O)O)NC(=O)[C@H](CO)NC(=O)[C@@H](NC(=O)[C@H](Cc1ccccc1)NC(=O)[C@@H](NC(=O)CNC(=O)[C@H](CCC(=O)O)NC(=O)[C@H](C)NC(=O)[C@@H](N)Cc1c[nH]cn1)[C@@H](C)O)[C@@H](C)O)C(C)C)C(=O)N[C@@H](Cc1ccccc1)C(=O)N[C@H](C(=O)N[C@@H](C)C(=O)N[C@@H](Cc1c[nH]c2ccccc12)C(=O)N[C@@H](CC(C)C)C(=O)N[C@H](C(=O)N[C@@H](CCCCN)C(=O)NCC(=O)N[C@@H](CCCNC(=N)N)C(=O)NCC(=O)O)C(C)C)[C@@H](C)CC [compound 18]
7 | 17.5 ± 2.75 nM | – | still detectable at 24 h | significantly increased | – | – | – | – | CCCCCCCCCCCCCCCCNC(=O)C[C@H](NC(=O)[C@@H](NC(=O)[C@H](CC(C)C)NC(=O)[C@H](Cc1c[nH]c2ccccc12)NC(=O)[C@H](C)NC(=O)[C@@H](NC(=O)[C@H](Cc1ccccc1)NC(=O)[C@H](CCC(=O)O)NC(=O)[C@H](CCCCN)NC(=O)[C@H](C)NC(=O)[C@H](C)NC(=O)[C@H](CCC(N)=O)NC(=O)CNC(=O)[C@H](CCC(=O)O)NC(=O)[C@H](CC(C)C)NC(=O)[C@H](Cc1ccc(O)cc1)NC(=O)[C@H](CO)NC(=O)[C@H](CO)NC(=O)[C@@H](NC(=O)[C@H](CC(=O)O)NC(=O)[C@H](CO)NC(=O)[C@@H](NC(=O)[C@H](Cc1ccccc1)NC(=O)[C@@H](NC(=O)CNC(=O)[C@H](CCC(=O)O)NC(=O)[C@H](C)NC(=O)[C@@H](N)Cc1c[nH]cn1)[C@@H](C)O)[C@@H](C)O)C(C)C)[C@@H](C)CC)C(C)C)C(=O)NCC(=O)N[C@@H](CCCNC(=N)N)C(=O)NCC(=O)O [compound 21]
